Reference: PubChem BioAssay AID463229 (Broad Institute, 2010)
Where “and” joins values, the source holds several entries; their conditions need not be identical. Identical values can stand only once. Calls of active or inactive are those of the source.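 How the source made its calls: active means compounds raising the signal whose fitted half-maximal concentration is at or below their top tested dose (cut at about 25 µM in these data); inconclusive means flat fit at 30 to 70% activity, or a poor fit; inactive means the rest.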

System: INS-1E rat beta cells, no cytokines, CellTiter-Glo ATP, 48 h
Experiment: cytokine-free beta-cell viability effect – INS-1E rat cells, ATP luminescence, cherry pick, counter-screen for beta-cell apoptosis protection project, dose response (AID 463229)

First: CCN(CC)c1ccc(/C=N/NC(=O)CNC(=O)C2COc3ccccc3O2)c(O)c1 (stereo not given)
Second: O=C(CNc1ccc(F)cc1)N/N=C/c1c(O)ccc2ccccc12
The AC50 of the first is 3.6-fold lower: 5.41 µM for the first, 19.5 µM for the second.

`CCCCCCCC[n+]1cccc2c3ccccc3ccc21` and `CCCCCCCCNc1ncnc2ccccc12` are within 1.5-fold of each other in AC50: 0.273 µM for the first, 0.384 µM for the second.

First: O=C(c1cc(-c2cccc(Cl)c2)nc2ccccc12)N1CCN(c2ccccn2)CC1
Second: O=C(Nc1nc2ccccc2s1)c1cc(-c2ccccc2)nn1-c1ccccc1
The AC50 of the first is 3.3-fold higher: 12.4 µM for the first, 3.74 µM for the second.

`CN(C)CCCNS(=O)(=O)c1ccc(NC2CCCCCC2)c([N+](=O)[O-])c1` and `Cc1cc(Cl)c(S(=O)(=O)N2CCN(c3ccc(F)cc3)CC2)cc1OCC(=O)NC1CCCCC1` are within 1.5-fold of each other in AC50: 7.27 µM for the first, 7.07 µM for the second.

First: C/C(=N\NC(=O)C(c1ccccc1)c1ccccc1)c1ccccn1
Second: C/C(=N\NC(=O)c1ccc(F)cc1)c1ccccn1
The AC50 of the first is 3.4-fold higher: 8.03 µM for the first, 2.35 µM for the second.

`CCc1nnc(NC(=O)c2cccc(C(=O)Nc3nnc(CC)s3)n2)s1` and `N#Cc1ccc(C(=O)Nc2nc(-c3cccs3)c(C(=O)C(F)(F)F)s2)cc1` are within 1.5-fold of each other in AC50: 2.98 µM for the first, 4.37 µM for the second.

Going from `Cc1cnc(NC(=O)CN2CCN(c3ccccn3)CC2)s1` to `Cc1ccc(C(=O)Nc2nc(-c3ccccn3)cs2)s1`, the AC50 rises from 4.35 µM to 6.66 µM (1.5-fold).

`CCCCCCSc1cccc(-c2nc3ccccn3c2NCc2ccccc2)c1` and `Cc1cccc2cc(-c3ccccc3)c(-c3ccccc3)c[n+]12` are within 1.5-fold of each other in AC50: 6.25 µM for the first, 4.21 µM for the second.

Compared with `Cn1nnnc1Sc1ncnc2scc(-c3cc4ccccc4o3)c12`, `COc1cccc(/C=N/Nc2ncnc3scc(-c4ccccc4)c23)c1O` is 3.8-fold lower in AC50: 7.61 µM for the first, 2.02 µM for the second.

First: CCOc1ccc(-n2c(-c3ccc(Br)cc3)c[n+]3c2CCCCC3)cc1
Second: COc1ccc(-c2c[n+]3c(n2-c2ccccc2)CCCCC3)cc1
The AC50 of the first is 2.4-fold lower: 1 µM for the first, 2.35 µM for the second.

First: CCOC(=O)c1cnc(-n2nc(C)cc2C)nc1NNc1nc(-c2ccccc2)cc(-c2ccccc2)n1
Second: C/C(=N\NC(=O)c1nnn(-c2nonc2N)c1CN(C)c1ccccc1)c1ccccc1O
The AC50 of the first is 2.2-fold lower: 4.09 µM for the first, 9.18 µM for the second.

Going from `Clc1ccc2nnnc(-c3ccccc3)c2c1` to `FC(F)(F)c1nnc(-c2ccccc2)nc1Sc1ccc(Cl)cc1`, the AC50 rises from 7.48 µM to 12.6 µM (1.7-fold).

`COc1cccc(/C=N/Nc2ncc(C(F)(F)F)cc2Cl)c1O` and `COc1cccc(/C=N/Nc2snc(SC)c2C#N)c1O` are within 1.5-fold of each other in AC50: 4.26 µM for the first, 5.12 µM for the second.

Compared with `Cc1ccc(S(=O)(=O)/N=C2\C(=O)c3ccccc3C([O-])=C2n2cc[n+](CCC(C)C)c2)cc1`, `CCc1ccc(S(=O)(=O)/N=C2/C=C(Sc3ncn[nH]3)C(=O)c3ccccc32)cc1` is 1.7-fold lower in AC50: 16.7 µM for the first, 9.6 µM for the second.

`CCOc1ccc(C(=O)N/N=C(\c2ccccc2)c2ccccn2)cc1` and `COc1ccc(C(=O)N/N=C(\c2ccccc2)c2ccccn2)cc1` are within 1.5-fold of each other in AC50: 4.89 µM for the first, 3.51 µM for the second.

Compared with `C=C(C)C(=O)OCC(O)COc1ccc(C(C)(C)c2ccc(OCC(O)COC(=O)C(=C)C)cc2)cc1` (stereo not given), `COc1ccc(C(CCNCc2ccc(OC(C)C)cc2)c2ccccc2OC)cc1` (stereo not given) is 2.4-fold lower in AC50: 19.2 µM for the first, 7.84 µM for the second.

`CC(=O)Oc1c(I)cc(I)cc1C(=O)Nc1ccc(Cl)cc1` and `COC(=O)c1cccc(NC(=O)Nc2ccc(Cl)c(Cl)c2)c1` are within 1.5-fold of each other in AC50: 14.8 µM for the first, 10.4 µM for the second.

First: CC(C)(C)c1ccc(CSc2cnn(C(C)(C)C)c(=O)c2Cl)cc1
Second: Cn1nc(-c2ccc(Cl)cc2)nc2c(=O)n(C)c(=O)nc1-2
The AC50 of the first is lower: less than 0.195 µM for the first, 0.508 µM for the second.

Compared with `Cc1ccc(-c2nn(-c3ccccc3)cc2/C=C/C(=O)Nc2cccc(S(N)(=O)=O)c2)cc1`, `O=S(=O)(/C(=C/c1ccc(C(F)(F)F)cc1)c1nc2ccccc2[nH]1)c1ccccc1` is 2-fold higher in AC50: 2.75 µM for the first, 5.45 µM for the second.

Compared with `O=c1cc(CSc2ccc(Cl)cc2)nc(-c2ccccn2)[nH]1`, `O=C(/C(=C/c1ccc(Cl)cc1)c1nc2ccccc2[nH]1)c1cccs1` is 2.6-fold lower in AC50: 11.6 µM for the first, 4.4 µM for the second.

Compared with `C=C[C@H](CC(C)C)N(Cc1ccccc1)S(=O)(=O)N(Cc1ccccc1)[C@@H](C=C)CC(C)C`, `CCC1=NN(C(=O)c2ccccc2O)C(O)(c2ccccc2)C1` (stereo not given) is 2.7-fold higher in AC50: 5.72 µM for the first, 15.6 µM for the second.

First: O=C(N/N=C/c1c(O)ccc2ccccc12)c1cccnc1
Second: COc1cccc(/C=N/NC(=O)c2c(-c3ccccc3)noc2C)c1O
The AC50 of the first is 2-fold lower: 4.07 µM for the first, 8.09 µM for the second.

`CCCCCCCC(=O)Nc1ccc(C(=O)N/N=C/c2cccc([N+](=O)[O-])c2)cc1` and `O=C(N/N=C/c1cc([N+](=O)[O-])ccc1O)c1cccc2cc[nH]c12` are within 1.5-fold of each other in AC50: 6.63 µM for the first, 6.89 µM for the second.

Compared with `Cc1ccc(NC(=O)/C=C/c2ccc([N+](=O)[O-])s2)c(C)c1`, `CC(=O)N1CCN(c2ccc(Oc3ccc([N+](=O)[O-])c(C(F)(F)F)c3)cc2)CC1` is 1.9-fold lower in AC50: 13.1 µM for the first, 7.04 µM for the second.

Compared with `COc1cc(C(=O)N/N=C(\C)c2ccccn2)cc(OC)c1OC`, `CCCC(=O)NC(c1ccc(OC)cc1)c1ccc2cccnc2c1O` (stereo not given) is 4.4-fold lower in AC50: 10.6 µM for the first, 2.4 µM for the second.

Going from `CCN1/C(=C/C=C/c2sc3ccccc3[n+]2CC)Sc2ccccc21` to `CCn1c(-c2ccccc2)c(C(=O)CCl)c2ccccc21`, the AC50 rises from less than 0.195 µM to 11.6 µM.

First: COc1ccc(C2=Nn3c([n+](C)c4ccccc43)SC2)cc1
Second: COc1cccc(COc2cc3ccccc3nc2C)c1
The AC50 of the first is 2.3-fold lower: 1.54 µM for the first, 3.51 µM for the second.

`FC(F)(F)c1cnc(NNC(=S)Nc2ccc(Cl)cc2)c(Cl)c1` and `CCN1CCN(C(c2ccc(C(F)(F)F)cc2)c2ccc3cccnc3c2O)CC1` (stereo not given) are within 1.5-fold of each other in AC50: 6.99 µM for the first, 4.72 µM for the second.

Compared with `CCC1CCCCN1C(=O)c1cc(COc2ccc(-n3cncn3)cc2)on1` (stereo not given), `Cc1ccc(-c2cn(-c3ccc(OC(F)F)cc3)c3[n+]2CCCCC3)cc1` is 11-fold lower in AC50: 16.5 µM for the first, 1.45 µM for the second.

First: COc1ccc(Nc2ccc3c(c2)=NC2(CCCCC2)[N+]=3[O-])cc1
Second: CCc1ccc(-n2cc(-c3ccc(F)cc3)[n+]3c2SCCC3)cc1
The AC50 of the first is 19-fold higher: 7.8 µM for the first, 0.413 µM for the second.

Compared with `Cc1cccc(CSC(Nc2ccc(F)cc2)=C(C#N)C#N)c1`, `O=C(NCc1cccnc1)c1ccc(NC(=O)c2ccc(Br)cc2)cc1` is lower in AC50: 5.85 µM for the first, less than 0.195 µM for the second.

First: O=C(CSC1c2ccccc2-c2ccccc21)N/N=C/c1ccccc1O
Second: O=C(/C(=C/c1ccc(Cl)cc1)c1nc2ccccc2[nH]1)c1ccccc1
The AC50 of the first is 1.7-fold higher: 6.8 µM for the first, 4.04 µM for the second.

Going from `Cc1ccc(C(C)C)c(OCC(O)CN2CCc3ccccc3C2)c1` (stereo not given) to `Cc1ccc(C)c(S(=O)(=O)N2CCN(Cc3ccc(O)c4ncccc34)CC2)c1`, the AC50 falls from 9.7 µM to 5.74 µM (1.7-fold).

Compared with `Clc1ccc(C[n+]2c(-c3ccccc3)cc(-c3ccccc3)cc2-c2ccccc2)cc1`, `COc1cc(CNC(C)c2ccccc2)cc(Br)c1OCc1ccc(F)cc1` (stereo not given) is 6.9-fold higher in AC50: 2.01 µM for the first, 13.8 µM for the second.

`Nc1c(C(=O)Nc2ccc3c(c2)OCCO3)nnn1Cc1ccccc1Cl` and `CN1/C(=C\C=N\NC(=O)c2ccc(O)cc2)C(C)(C)c2ccccc21` are within 1.5-fold of each other in AC50: 5.53 µM for the first, 7.5 µM for the second.

First: CCCCCCCCCCn1ccc(=N)cc1
Second: O=C(NCCCn1ccnc1)c1ccc(-c2ccccc2)cc1
The AC50 of the first is 15-fold lower: 0.543 µM for the first, 8.12 µM for the second.

Compared with `Cc1ccnc2c1ccc1c(C)ccnc12`, `Cc1cc(C)n(-c2nc3ccccc3c(=O)n2OCC#N)n1` is 3.7-fold higher in AC50: 3.39 µM for the first, 12.4 µM for the second.

Going from `CCCN(CCC)C(=O)c1cc([N+](=O)[O-])cc2c1-c1ccc([N+](=O)[O-])cc1C2=C(C#N)C#N` to `CCOc1cccc(/C=N/Nc2ccc(S(=O)(=O)N(CC)CC)cn2)c1O`, the AC50 falls from 14.2 µM to 3.67 µM (3.9-fold).

Going from `CCOC(=O)[C@@H]1[C@H]2COc3cc(OC)ccc3[C@H]2N2C(=O)N(c3ccc(C(F)(F)F)cc3)C(=O)[C@]12C` to `Cc1cc(C)n(-c2nc(NCCN(C)C)c3c4c(sc3n2)CCCC4)n1`, the AC50 falls from 15 µM to 9.54 µM (1.6-fold).

With `COc1ccccc1-n1c(-c2ccccc2)c[n+]2c1CCc1ccccc1-2` the AC50 was 2.16 µM and 3.41 µM.
In the case of `Cc1c(C(=O)N(Cc2ccccc2)C(C)C)oc2ccc(S(=O)(=O)N3CCOCC3)cc12`, the AC50 was > 26 µM (inactive).
